Assay results reported in patent publication US9340493B2, “Hydroxamic acid derivatives useful as antibacterial agents” (Pfizer Inc., priority 2008, dated 2016).
Converted amounts (≈) assume the structure as drawn.

Key:
[1] = target: T1, Pseudomonas aeruginosa LpxC enzyme (Pseudomonas aeruginosa, UniProt P47205); test: IC50 assay, LpxC enzyme from P. aeruginosa; assay type: biochemical; details: 0.5 nM enzyme, 25° C., pH 8.0, 20 min; ** = average of 2-8 assays
T1 construct: made in house; host or cells: E. coli
T1 sequence (P47205 1-303): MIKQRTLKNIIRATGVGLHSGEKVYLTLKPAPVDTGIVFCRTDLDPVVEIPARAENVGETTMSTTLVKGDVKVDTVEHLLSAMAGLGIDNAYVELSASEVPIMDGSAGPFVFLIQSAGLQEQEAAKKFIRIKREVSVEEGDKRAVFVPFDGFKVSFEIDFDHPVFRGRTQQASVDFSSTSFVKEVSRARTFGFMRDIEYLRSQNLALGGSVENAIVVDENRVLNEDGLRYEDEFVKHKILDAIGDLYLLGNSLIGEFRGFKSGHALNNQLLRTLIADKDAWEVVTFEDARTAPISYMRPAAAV
Description: IC50 assay, LpxC enzyme from P. aeruginosa: IC50 determination in the LpxC enzyme assay was carried out in a similar manner to that described by S. A. Hyland et al., J. Bacteriology 1997, 179, 2029-2037. [See also T. Kline et al., J. Medicinal Chemistry 2002, 45, 3112-3129.] Briefly, Pseudomonas aeruginosa LpxC enzyme (0.5 nM) purified from E. coli-overexpressing bacteria was incubated at 25° C. in a final volume of 25 ul containing 0.5 uM UDP-3-O—(R-3-hydroxydecanoyl)-N—[^3H-acetyl]glucosamine (B. D. Maxwell and J. C. Bronstein, J. Labeled Compounds and Radiopharmaceuticals 2005, 48, 1049-1054), 1 mg/ml BSA, and 50 mM sodium phosphate buffer, pH 8.0 in the presence and absence of inhibitor compound. At the end of 20 min, 90 ul of a pre-mixed 3% suspension of activated charcoal in 100 mM sodium acetate, pH 7.5, was added to stop the enzyme reaction. The contents of the well were transferred to a filter plate and filtered, and an aliquot of the filtrate was quantitated by liquid scintillation spectrometry. A no-enzyme control was subtracted in order to eliminate background counts.

P. aeruginosa PAO280 = test: MIC determination, P. aeruginosa PAO280; assay type: cell-based; details: Pseudomonas aeruginosa, PAO280, read-out: MIC (ug/mL) P. aeruginosa PAO280
Description: (§1) MIC determinations: The in vitro antibacterial activity of compounds described in the Examples was evaluated by minimum inhibitory concentration (MIC) testing according to Clinical and Laboratory Standards Institute (CLSI, formerly NCCLS) guidelines. See: Clinical and Laboratory Standards Institute. Methods for Dilution Antimicrobial Susceptibility Tests for Bacteria that Grow Aerobically; Approved Standard-Seventh Edition. CLSI document M7-A7 [ISBN 1-56238-587-9]. Clinical and Laboratory Standards Institute, 940 West Valley Road, Suite 1400, Wayne, Pa. 19087-1898 USA, 2006; also Clinical and Laboratory Standards Institute. Performance Standards for Antimicrobial Susceptibility Testing; Eighteenth Informational Supplement. CLSI document M100-S18 [ISBN1-56238-653-0]. Clinical and Laboratory Standards Institute.
(§2) The following bacterial strains were used:
Pseudomonas aeruginosa PA0280: lacks efflux pumps MexAB-oprM, MexXY and MexZ

P. aeruginosa UI-18 = test: MIC determination, P. aeruginosa UI-18; assay type: cell-based; details: Pseudomonas aeruginosa, UI18; wild-type; * = arithmetic mean of 2-6 MIC determinations; read-out: MIC (ug/mL) P. aeruginosa UI-18
Description: as §1, §2
P. aeruginosa UI-18: Wild-type;

[2] = tested on: Acinetobacter baumanii/haemolyticus; test: MIC determination, A. baumanii/haemolyticus; assay type: cell-based; details: Acinetobacter baumannii; multidrug-resistant clinical isolate; * = arithmetic mean of 2-6 MIC determinations; read-out: MIC (ug/mL) A. baumanii/haemolyticus
Description: as §1, §2
Acinetobacter baumanii/haemolyticus: Multidrug-resistant clinical isolate;

Enterobacter aerogenes = test: MIC determination, E. aerogenes; assay type: cell-based; details: Klebsiella aerogenes; quinolone-resistant, ESBL-expressing clinical isolate; * = arithmetic mean of 2-6 MIC determinations; read-out: MIC (ug/mL) E. aerogenes
Description: as §1, §2
Enterobacter aerogenes: Quinolone-resistant isolate, expresses extended-spectrum beta-lactamases (ESBL), clinical isolate;

Escherichia coli EC-1 = test: MIC determination, E. coli EC-1; assay type: cell-based; details: EC1, EC-1: VOGEL, * = arithmetic mean of 2-6 MIC determinations, read-out: MIC (ug/mL) E. coli EC-1
Description: as §1, §2
Escherichia coli EC-1: VOGEL;

Klebsiella pneumoniae = test: MIC determination, K. pneumoniae; assay type: cell-based; details: ciprofloxacin-resistant, ESBL-expressing clinical isolate, * = arithmetic mean of 2-6 MIC determinations, read-out: MIC (ug/mL) K. pneumoniae
Description: as §1, §2
Klebsiella pneumoniae: Ciprofloxacin-resistant isolate, expresses extended-spectrum beta-lactamases (ESBL), clinical isolate;

[3] = tested on: Staphylococcus aureus ATCC 29213; test: MIC determination, S. aureus ATCC 29213; assay type: cell-based; details: ATCC29213, CLSI quality control reference strain, * = arithmetic mean of 2-6 MIC determinations, read-out: MIC (ug/mL) S. aureus ATCC 29213
Description: as §1, §2
Staphylococcus aureus ATCC 29213: CLSI quality control reference strain; and […]

SMILES | IC50 [1] | MIC (P. aeruginosa PAO280) | MIC (P. aeruginosa UI-18) | MIC [2] | MIC (Enterobacter aerogenes) | MIC (Escherichia coli EC-1) | MIC (Klebsiella pneumoniae) | MIC [3]
C[C@@](OCc1ccc(-c2ccccc2)cc1)(C(=O)NO)[C@@H](O)c1ccco1 [Example 13, (2S,3S)-2-(biphenyl-4-ylmethoxy)-3-(2-furyl)-N,3-dihydroxy-2-methylpropanamide] | 0.00163 µM | 0.5 µg/mL (≈ 1.36 µM) | 32 µg/mL (≈ 87.1 µM) | > 32 µg/mL | > 32 µg/mL | > 32 µg/mL | > 32 µg/mL | > 32 µg/mL
C[C@@](OCc1ccc(-c2ccccc2)cc1)(C(=O)NO)[C@@H](O)c1ccc(CO)o1 [Example 14, (2S,3S)-2-(biphenyl-4-ylmethoxy)-N,3-dihydroxy-3-[5-(hydroxymethyl)-2-furyl]-2-methylpropanamide] | 0.000582 µM | 0.5 µg/mL (≈ 1.26 µM) | 16 µg/mL (≈ 40.3 µM) | > 64 µg/mL | > 64 µg/mL | > 64 µg/mL | > 64 µg/mL | > 64 µg/mL
C[C@@](OCc1ccc(-c2ccccc2)cc1)(C(=O)NO)[C@@H](O)C1CC1 [Example 15, (2S,3S)-2-(biphenyl-4-ylmethoxy)-3-cyclopropyl-N,3-dihydroxy-2-methylpropanamide] | 0.0734 µM | 32 µg/mL (≈ 93.7 µM) | > 64 µg/mL | > 64 µg/mL | > 64 µg/mL | > 64 µg/mL | > 64 µg/mL | > 64 µg/mL
C[C@@](OCc1ccc(-c2ccccc2)cc1)(C(=O)NO)[C@@H](O)c1ccno1 [Example 16, (2S,3R)-2-(biphenyl-4-ylmethoxy)-N,3-dihydroxy-3-isoxazol-5-yl-2-methylpropanamide] | 0.00079 µM | 0.125 µg/mL (≈ 0.339 µM) | 8 µg/mL (≈ 21.7 µM) | > 64 µg/mL | > 64 µg/mL | 64 µg/mL (≈ 174 µM) | > 64 µg/mL | > 64 µg/mL
C[C@@](OCc1ccc(-c2ccccc2)cc1)(C(=O)NO)[C@@H](O)c1ccccn1 [Example 17, (2S,3S)-2-(biphenyl-4-ylmethoxy)-N,3-dihydroxy-2-methyl-3-pyridin-2-ylpropanamide] | 0.0015 µM | 0.25 µg/mL (≈ 0.661 µM) | 8 µg/mL (≈ 21.1 µM) | 32 µg/mL (≈ 84.6 µM) | > 64 µg/mL | 16 µg/mL (≈ 42.3 µM) | > 64 µg/mL | > 64 µg/mL
Cn1nncc1[C@H](O)[C@](C)(OCc1ccc(-c2ccccc2)cc1)C(=O)NO [Example 19, (2S,3S)-2-(biphenyl-4-ylmethoxy)-N,3-dihydroxy-2-methyl-3-(1-methyl-1H-1,2,3-triazol-5-yl)propanamide] | 0.00256 µM | 2 µg/mL (≈ 5.23 µM) | > 64 µg/mL | > 64 µg/mL | > 64 µg/mL | > 64 µg/mL | > 64 µg/mL | > 64 µg/mL
C[C@@](OCc1ccc(-c2ccccc2)cc1)(C(=O)NO)[C@@H](O)c1nccs1 [Example 20, (2S,3R)-2-(biphenyl-4-ylmethoxy)-N,3-dihydroxy-2-methyl-3-(1,3-thiazol-2-yl)propanamide] | 0.000726 µM | 1 µg/mL (≈ 2.6 µM) | 16 µg/mL (≈ 41.6 µM) | > 64 µg/mL | > 64 µg/mL | > 64 µg/mL | > 64 µg/mL | > 64 µg/mL
C[C@@](OCc1ccc(-c2ccccc2)cc1)(C(=O)NO)[C@@H](O)c1cncs1 [Example 21, (2S,3R)-2-(biphenyl-4-ylmethoxy)-N,3-dihydroxy-2-methyl-3-(1,3-thiazol-5-yl)propanamide] | 0.00823 µM | 4 µg/mL (≈ 10.4 µM) | > 64 µg/mL | > 64 µg/mL | > 64 µg/mL | > 64 µg/mL | > 64 µg/mL | > 64 µg/mL
C[C@@](OCc1ccc(-c2ccccc2)cc1)(C(=O)NO)[C@@H](O)c1ccoc1 [Example 22, (2S,3S)-2-(biphenyl-4-ylmethoxy)-3-(3-furyl)-N,3-dihydroxy-2-methylpropanamide] | 0.0105 µM | 4 µg/mL (≈ 10.9 µM) | > 8 µg/mL | > 8 µg/mL | > 8 µg/mL | > 8 µg/mL | > 8 µg/mL | > 8 µg/mL
Cc1cc([C@H](O)[C@](C)(OCc2ccc(-c3ccccc3)cc2)C(=O)NO)no1 [Example 23, (2S,3S)-2-(biphenyl-4-ylmethoxy)-N,3-dihydroxy-2-methyl-3-(5-methylisoxazol-3-yl)propanamide] | 0.000376 µM | 0.015 µg/mL (≈ 0.0392 µM) | 1.75 µg/mL (≈ 4.58 µM) | 4 µg/mL (≈ 10.5 µM) | 27 µg/mL (≈ 70.6 µM) | 4 µg/mL (≈ 10.5 µM) | 8 µg/mL (≈ 20.9 µM) | > 64 µg/mL
COCc1ccc([C@H](O)[C@](C)(OCc2ccc(-c3ccccc3)cc2)C(=O)NO)o1 [Example 24, (2S,3S)-2-(biphenyl-4-ylmethoxy)-N,3-dihydroxy-3-[5-(methoxymethyl)-2-furyl]-2-methylpropanamide] | 0.00128 µM | 2 µg/mL (≈ 4.86 µM) | 32 µg/mL (≈ 77.8 µM) | > 64 µg/mL | > 64 µg/mL | > 64 µg/mL | > 64 µg/mL | > 64 µg/mL
C[C@@](OCc1ccc(-c2ccccc2)cc1)(C(=O)NO)[C@@H](O)c1cn2ccccc2n1 [Example 25, (2S,3S)-2-(biphenyl-4-ylmethoxy)-N,3-dihydroxy-3-imidazo[1,2-a]pyridin-2-yl-2-methylpropanamide] | 0.00138 µM | 0.03 µg/mL (≈ 0.0719 µM) | 1.67 µg/mL (≈ 4 µM) | 32 µg/mL (≈ 76.7 µM) | 16 µg/mL (≈ 38.3 µM) | 3 µg/mL (≈ 7.19 µM) | 4 µg/mL (≈ 9.58 µM) | > 64 µg/mL
CCCc1ccc(-c2ccc(CO[C@](C)(C(=O)NO)[C@@H](O)c3cn4ccccc4n3)cc2)cc1 [Example 26, (2S,3S)-N,3-dihydroxy-3-imidazo[1,2-a]pyridin-2-yl-2-methyl-2-[(4′-propylbiphenyl-4-yl)methoxy]propanamide] | 0.00137 µM | 2 µg/mL (≈ 4.35 µM) | 8 µg/mL (≈ 17.4 µM) | 1 µg/mL (≈ 2.18 µM) | 8 µg/mL (≈ 17.4 µM) | 1 µg/mL (≈ 2.18 µM) | 4 µg/mL (≈ 8.7 µM) | 32 µg/mL (≈ 69.6 µM)
Cc1nc([C@H](O)[C@](C)(OCc2ccc(-c3ccccc3)cc2)C(=O)NO)c(C)o1 [Example 27, (2S,3S)-2-(biphenyl-4-ylmethoxy)-3-(2,5-dimethyl-1,3-oxazol-4-yl)-N,3-dihydroxy-2-methylpropanamide] | 0.0652 µM | 16 µg/mL (≈ 40.4 µM) | > 64 µg/mL | > 64 µg/mL | > 64 µg/mL | > 64 µg/mL | > 64 µg/mL | > 64 µg/mL
C[C@@](OCc1ccc(-c2ccccc2)cc1)(C(=O)NO)[C@@H](O)c1cc(-c2ccccc2)on1 [Example 28, (2S,3S)-2-(biphenyl-4-ylmethoxy)-N,3-dihydroxy-2-methyl-3-(5-phenylisoxazol-3-yl)propanamide] | 0.00143 µM | 4 µg/mL (≈ 9 µM) | 8 µg/mL (≈ 18 µM) | 8 µg/mL (≈ 18 µM) | > 16 µg/mL | 8 µg/mL (≈ 18 µM) | > 16 µg/mL | 16 µg/mL (≈ 36 µM)
